Data on 16 compounds can be found in US11440910B2, “Pesticidally active heterocyclic derivatives with sulfur containing substituents” (SYNGENTA PARTICIPATIONS AG, priority 2017, dated 2022).

In data set [1] the test system is Myzus persicae (Green peach aphid). As to the kind of experiment: Example B5: Myzus persicae, sunflower leaf discs sprayed. The class given is in vivo. The note with it: foliar, 144 h, application rate 200 ppm, mixed ages, 6 days after infestation. As for the experimental part: Example B5: Myzus Persicae (Green Peach Aphid)
Sunflower leaf discs were placed onto agar in a 24-well microtiter plate and sprayed with aqueous test solutions prepared from 10′000 ppm DMSO stock solutions. After drying, the leaf discs were infested with an aphid population of mixed ages. The samples were assessed for mortality 6 days after infestation.

In data set [2] the test system is Bemisia tabaci (Cotton white fly). In words: Example B7: Bemisia tabaci, cotton leaf discs sprayed. The class given is in vivo. The note with it: foliar, 144 h, application rate 200 ppm, adult white flies, 6 days after incubation. As for the experimental part:
Example B7: Bemisia Tabaci (Cotton White Fly)
Cotton leaf discs were placed on agar in 24-well microtiter plates and sprayed with aqueous test solutions prepared from 10′000 ppm DMSO stock solutions. After drying the leaf discs were infested with adult white flies. The samples were checked for mortality 6 days after incubation.

Data set [3] relates to Spodoptera littoralis (Egyptian cotton leaf worm). In words: Example B1: Spodoptera littoralis, cotton leaf discs sprayed. The class given is in vivo. The note with it: foliar, 72 h, application rate 200 ppm, L1 larvae, 3 days after infestation, read-out: control (at least one of mortality, anti-feedant effect, growth inhibition). As for the experimental part: Example B1: Spodoptera Littoralis (Egyptian Cotton Leaf Worm)
Cotton leaf discs were placed onto agar in 24-well microtiter plates and sprayed with aqueous test solutions prepared from 10′000 ppm DMSO stock solutions. After drying the leaf discs were infested with five L1 larvae. The samples were assessed for mortality, anti-feeding effect, and growth inhibition in comparison to untreated samples 3 days after infestation. Control of Spodoptera littoralis by a test sample is given when at least one of the categories mortality, anti-feedant effect, and growth inhibition is higher than the untreated sample.

The subject of data set [4] is Plutella xylostella (Diamond back moth). In words: Example B3: Plutella xylostella, artificial diet. The class given is in vivo. The note with it: 120 h, application rate 200 ppm, L2 larvae, 5 days after infestation, read-out: effect in at least one of the two categories (mortality or growth inhibition). As for the experimental part: Example B3: Plutella Xylostella (Diamond Back Moth)
24-well microtiter plates with artificial diet were treated with aqueous test solutions prepared from 10′000 ppm DMSO stock solutions by pipetting. After drying, the plates were infested with L2 larvae (10 to 15 per well). The samples were assessed for mortality and growth inhibition in comparison to untreated samples 5 days after infestation.

For data set [5], the system named is Myzus persicae (Green peach aphid). In words: Example B6: Myzus persicae, roots of pea seedlings in test solution. The class given is in vivo. The note with it: 144 h, test rate 24 ppm, mixed ages, 6 days after placing seedlings into test solutions. As for the experimental part:
Example B6: Myzus Persicae (Green Peach Aphid)
Roots of pea seedlings infested with an aphid population of mixed ages were placed directly into aqueous test solutions prepared from 10′000 DMSO stock solutions. The samples were assessed for mortality 6 days after placing seedlings into test solutions.

In data set [6] the test system is Spodoptera littoralis (Egyptian cotton leaf worm). In words: Example B2: Spodoptera littoralis, systemic test via lettuce roots in agar. The class given is in vivo. The following applies: 144 h, test rate 12.5 ppm, 6 days after infestation, read-out: effect in at least one of the three categories (mortality, anti-feeding, or growth inhibition). An excerpt:
Example B2: Spodoptera Littoralis (Egyptian Cotton Leaf Worm)
Test compounds were applied by pipette from 10′000 ppm DMSO stock solutions into 24-well plates and mixed with agar. Lettuce seeds were placed onto the agar and the multi well plate was closed by another plate which contained also agar. After 7 days the compound was absorbed by the roots and the lettuce grew into the lid plate. The lettuce leaves were then cut off into the lid plate. Spodoptera eggs were pipetted through a plastic stencil onto a humid gel blotting paper and the lid plate was closed with it. The samples were assessed for mortality, anti-feedant effect and growth inhibition in comparison to untreated samples 6 days after infestation.

Data set [7] relates to Euschistus heros (Neotropical brown stink bug). In words: Example B8: Euschistus heros, soybean leaves sprayed. The note with it: 120 h, application rate 200 ppm, N2 nymphs, 5 days after infestation, read-out: effect in at least one of the two categories (mortality or growth inhibition). The class given is in vivo. As for the experimental part: Example B8: Euschistus Heros (Neotropical Brown Stink Bug)
Soybean leaves on agar in 24-well microtiter plates were sprayed with aqueous test solutions prepared from 10′000 ppm DMSO stock solutions. After drying the leaves were infested with N2 nymphs. The samples were assessed for mortality and growth inhibition in comparison to untreated samples 5 days after infestation.

Data set [8] has as its system Diabrotica balteata (Corn root worm). As to the kind of experiment: Example B4: Diabrotica balteata, maize sprouts sprayed. The following applies: 96 h, application rate 200 ppm, L2 larvae, 4 days after infestation, read-out: effect in at least one of the two categories (mortality or growth inhibition). The class given is in vivo. As for the experimental part:
Example B4: Diabrotica Balteata (Corn Root Worm)
Maize sprouts placed onto an agar layer in 24-well microtiter plates were treated with aqueous test solutions prepared from 10′000 ppm DMSO stock solutions by spraying. After drying, the plates were infested with L2 larvae (6 to 10 per well). The samples were assessed for mortality and growth inhibition in comparison to untreated samples 4 days after infestation.

Consider `CCS(=O)(=O)c1cc(C(C)(C#N)C#N)cnc1-c1nc2cc(C(F)(F)F)ncc2n1C` [Compound P1, 2-[5-ethylsulfonyl-6-[3-methyl-6-(trifluoromethyl)imidazo[4,5-c]pyridin-2-yl]-3-pyridyl]-2-methyl-propanedinitrile], for which the melting point (commonly the temperature of the solid-liquid transition) was 222 to 223 °C.

Regarding `CCS(=O)(=O)c1cc(C(C)(C)C#N)cnc1-c1nc2cc(C(F)(F)F)nnc2n1C` [Compound P2, 2-[5-ethylsulfonyl-6-[7-methyl-3-(trifluoromethyl)imidazo[4,5-c]pyridazin-6-yl]-3-pyridyl]-2-methyl-propanenitrile], the mortality at 200 ppm in data set [1] and in data set [2] was not below 80% each time. Moreover, the percent control (mortality, anti-feedant effect or growth inhibition) at 200 ppm in data set [3] is not below 80%. For the same compound, the percent effect (mortality or growth inhibition) at 200 ppm in [4], in [7] and in [8] was not below 80% throughout. In addition, the mortality (commonly the share of the test organisms that died) at 24 ppm in data set [5] is not below 80%. In addition, in [6], the percent effect (mortality, anti-feeding or growth inhibition) at 12.5 ppm was not below 80%.

Regarding `CCC(C#N)(CC)c1cnc(-c2nc3cc(C(F)(F)F)ncc3n2C)c(S(=O)(=O)CC)c1` [Compound P3, 2-ethyl-2-[5-ethylsulfonyl-6-[3-methyl-6-(trifluoromethyl)imidazo[4,5-c]pyridin-2-yl]-3-pyridyl]butanenitrile], the percent effect (mortality or growth inhibition) at 200 ppm in data set [4] and in data set [8] was not below 80% each time.

The compound `CCC(C#N)c1cnc(-c2nc3cc(C(F)(F)F)ncc3n2C)c(S(=O)(=O)CC)c1` (centres unmarked) [Compound P4, 2-[5-ethylsulfonyl-6-[3-methyl-6-(trifluoromethyl)imidazo[4,5-c]pyridin-2-yl]-3-pyridyl]butanenitrile] yielded a mortality at 200 ppm in [1] not below 80%. The percent effect (mortality or growth inhibition) at 200 ppm in [4] and in [8] was not below 80% each time.

For `CCS(=O)(=O)c1cc(C(C)(C)C#N)cnc1-c1nc2cc(C(F)(F)F)ncc2n1C` [Compound P5, 2-[5-ethylsulfonyl-6-[3-methyl-6-(trifluoromethyl)imidazo[4,5-c]pyridin-2-yl]-3-pyridyl]-2-methyl-propanenitrile], the mortality at 200 ppm in data set [1] and in [2] was not below 80% throughout. Moreover, the percent control (mortality, anti-feedant effect or growth inhibition) at 200 ppm in data set [3] was not below 80%. In addition, the percent effect (mortality or growth inhibition) at 200 ppm in data set [4], in [7] and in data set [8] was not below 80% in each case. The same compound displayed a mortality at 24 ppm in data set [5] not below 80%.

For the compound `CCS(=O)(=O)c1cc(C(C)C#N)cnc1-c1nc2cc(C(F)(F)F)ncc2n1C` (centres unmarked) [Compound P6, 2-[5-ethylsulfonyl-6-[3-methyl-6-(trifluoromethyl)imidazo[4,5-c]pyridin-2-yl]-3-pyridyl]propanenitrile], the mortality at 24 ppm in data set [5] was not below 80%. Moreover, the percent effect (mortality or growth inhibition) at 200 ppm in data set [7] and in [8] was not below 80% throughout.

On to `CCOC(=O)C(C)(C#N)c1cnc(-c2nc3cc(C(F)(F)F)ncc3n2C)c(S(=O)(=O)CC)c1` (centres unmarked) [Compound P9, ethyl 2-cyano-2-[5-ethylsulfonyl-6-[3-methyl-6-(trifluoromethyl)imidazo[4,5-c]pyridin-2-yl]-3-pyridyl]propanoate], for which the percent effect (mortality or growth inhibition) at 200 ppm in data set [4] and in data set [7] was not below 80% in each case.

As for `CCS(=O)(=O)c1cc(C(C#N)C(C)C)cnc1-c1nc2cc(C(F)(F)F)ncc2n1C` (centres unmarked) [Compound P10, 2-[5-ethylsulfonyl-6-[3-methyl-6-(trifluoromethyl)imidazo[4,5-c]pyridin-2-yl]-3-pyridyl]-3-methyl-butanenitrile], the mortality at 200 ppm in data set [1] is not below 80%. For the same compound, the percent effect (mortality or growth inhibition) at 200 ppm in [4] and in data set [8] was not below 80% in each case. In addition, the mortality at 24 ppm in data set [5] is not below 80%.

As to `CCSc1cc(C(C)(C)C#N)ccc1-c1nc2cc(C(F)(F)F)nnc2n1C` [Compound P11, 2-[3-ethylsulfanyl-4-[7-methyl-3-(trifluoromethyl)imidazo[4,5-c]pyridazin-6-yl]phenyl]-2-methyl-propanenitrile], the mortality at 200 ppm in data set [2] is not below 80%. For the same compound, the percent effect (mortality or growth inhibition) at 200 ppm in [7] and in [8] was not below 80% in each case.

With `CCS(=O)(=O)c1cc(C(C)(C)C#N)ccc1-c1nc2cc(C(F)(F)F)nnc2n1C` [Compound P12, 2-[3-ethylsulfonyl-4-[7-methyl-3-(trifluoromethyl)imidazo[4,5-c]pyridazin-6-yl]phenyl]-2-methyl-propanenitrile], the mortality at 200 ppm in data set [1] and in data set [2] was not below 80% in each case. Moreover, the percent effect (mortality or growth inhibition) at 200 ppm in [4], in data set [7] and in data set [8] was not below 80% each time. In data set [5], this compound returned a mortality at 24 ppm not below 80%.

As to `CCSc1cc(C(C)C#N)ccc1-c1nc2cc(C(F)(F)F)nnc2n1C` (centres unmarked) [Compound P13, 2-[3-ethylsulfanyl-4-[7-methyl-3-(trifluoromethyl)imidazo[4,5-c]pyridazin-6-yl]phenyl]propanenitrile], the percent effect (mortality or growth inhibition) at 200 ppm in [7] was not below 80%.

Consider `CCS(=O)(=O)c1cc(C(F)(F)C#N)cnc1-c1nc2cc(C(F)(F)F)ncc2n1C` [Compound P15, 2-[5-ethylsulfonyl-6-[3-methyl-6-(trifluoromethyl)imidazo[4,5-c]pyridin-2-yl]-3-pyridyl]-2,2-difluoro-acetonitrile], for which the mortality at 200 ppm in [1] is not below 80%. In [5], the mortality at 24 ppm was not below 80%. For the same compound, the percent effect (mortality or growth inhibition) at 200 ppm in data set [7] and in data set [8] was not below 80% in each case.

As to `CCSc1cc(C(C)(C)C#N)ccc1-c1nc2cc(C(F)(F)F)ncc2n1C` [Compound P16, 2-[3-ethylsulfanyl-4-[3-methyl-6-(trifluoromethyl)imidazo[4,5-c]pyridin-2-yl]phenyl]-2-methyl-propanenitrile], the percent effect (mortality or growth inhibition) at 200 ppm in data set [7] and in data set [8] was not below 80% throughout.

For `CCS(=O)(=O)c1cc(C(C)(F)C#N)cnc1-c1nc2cc(C(F)(F)F)ncc2n1C` (centres unmarked) [Compound P18, 2-[5-ethylsulfonyl-6-[3-methyl-6-(trifluoromethyl)imidazo[4,5-c]pyridin-2-yl]-3-pyridyl]-2-fluoro-propanenitrile], the melting point was 202 to 204 °C.

For `CCS(=O)(=O)c1cc(C(C)(C)C#N)cnc1-c1nc2cc(Br)ncc2n1C` [Compound P19, 2-[6-(6-bromo-3-methyl-imidazo[4,5-c]pyridin-2-yl)-5-ethylsulfonyl-3-pyridyl]-2-methyl-propanenitrile], in data set [5], the mortality at 24 ppm was not below 80%. In addition, the percent effect (mortality or growth inhibition) at 200 ppm in [7] was not below 80%.

On to `CCS(=O)(=O)c1cc(C(C)(C)C#N)cnc1-c1nc2cc(C(F)(F)C(F)(F)F)ncc2n1C` [Compound P20, 2-[5-ethylsulfonyl-6-[3-methyl-6-(1,1,2,2,2-pentafluoroethyl)imidazo[4,5-c]pyridin-2-yl]-3-pyridyl]-2-methyl-propanenitrile], for which the melting point was in the range of 212 to 213 °C.
